# Test results reported in patent publication US20110130369A1, “USE OF FTS FOR THE TREATMENT OF MYOCARDIAL ISCHEMIA/REPERFUSION INJURY” (RAMOT AT TEL-AVIV UNIVERSITY LTD., priority 2008, published 2011).
# Tests used:
# isolated rat heart [1] = assay: Isolated heart perfusion (Langendorff), 30 min ischemia / 30 min reperfusion, hemodynamic recovery; conditions: FTS 1 μM in perfusate
# Protocol: FTS was provided by Concordia Pharmaceuticals, Inc. (Ft. Lauderdale, Fla.). […] The powder was dissolved in DMSO and diluted with Krebs-Henseleit bicarbonate buffer solution (KHB) to yield a 1 μM drug solution containing 10% DMSO. Rats were heparinized (500 U/kg) and anesthetized (i.p.) with ether. The hearts were quickly removed, the aorta was cannulated and the heart perfused in retrograde according to Langendorff at a pressure of 96 cmH2O with oxygenated Krebs-Henseleit bicarbonate buffer solution (KHB) containing (mM): 118 NaCl, 2.4 KCl, 1.2 MgSO4, 7×H2O, 2.5 CaCl2, 5 EDTA, 1.2 KH2PO4, 25 NaHCO3, 4 glucose at 37° C. [[…], Offen D, Maulik N, Otani H, Barhum Y, et al., Am J Physiol Heart Circ Physiol 284:H2351-59 (2003)]. The isolated heart was stabilized for 20 minutes at a constant perfusion pressure and then subjected to 30 minutes of ischemia followed by 30 minutes of reperfusion. Ischemia was created by clamping the aortic cannula. During reperfusion, hearts were given KHB (buffer) with FTS or KHB only. The temperature of the heart (measured in the right ventricle) was maintained at 37°±0.2° C. throughout the experiment by a micro-thermocouple connected to a digital thermometer (Webster Laboratories […], Calif.). In all stages of the protocol, the left ventricular developed pressure (LVP), the rate of pressure development and relaxation (±dP/dt) and the heart rate (HR), were continuously recorded by the CODAS data acquisition system (San Diego, Calif.). Rate pressure product (RPP), an index of myocardial workload, was calculated by multiplying LVP by HR. Coronary effluent was collected at one-minute intervals before and after ischemia, at various time points (1, 10 and 30 minutes reperfusion) and analyzed for CK activity (Boehringer Mannheim). Results are expressed as means±standard error of the mean (SE). Values during stabilization period were defined as 100%. A statistical difference between the groups was assessed by analysis of variance (ANOVA) with repeated measurements using the multiple comparison option of Duncan. If differences were established, values were compared using Student's t-test: p<0.05 was considered significant. To determine the protective effects of Ras protein inhibition on cardiac damage derived from I/R injury ex vivo, we first determined the baseline absolute values of the rats and cardiac function prior to ischemia in FTS (1 μM) and control groups. […] Values are expressed as mean±SE. Next, we perfused the isolated rat hearts with FTS (1 μM) in the Langendorff system after 30 minutes of ischemia (FIG. 1). FTS had no effect on the CF recovery in the FTS vs. control group (FIG. 1A) during the 30 minutes of reperfusion.
# isolated rat heart [2] = assay: Enzymatic leakage of CK and LDH into the coronary effluent of isolated perfused hearts; conditions: FTS 1 μM, at 1 minute and 30 minutes of reperfusion
# Protocol: (§1) Rats were heparinized (500 U/kg) and anesthetized (i.p.) with ether. The hearts were quickly removed, the aorta was cannulated and the heart perfused in retrograde according to Langendorff at a pressure of 96 cmH2O with oxygenated Krebs-Henseleit bicarbonate buffer solution (KHB) containing (mM): 118 NaCl, 2.4 KCl, 1.2 MgSO4, 7×H2O, 2.5 CaCl2, 5 EDTA, 1.2 KH2PO4, 25 NaHCO3, 4 glucose at 37° C. [[…], Offen D, Maulik N, Otani H, Barhum Y, et al., Am J Physiol Heart Circ Physiol 284:H2351-59 (2003)]. The isolated heart was stabilized for 20 minutes at a constant perfusion pressure and then subjected to 30 minutes of ischemia followed by 30 minutes of reperfusion. Ischemia was created by clamping the aortic cannula. During reperfusion, hearts were given KHB (buffer) with FTS or KHB only. The temperature of the heart (measured in the right ventricle) was maintained at 37°±0.2° C. throughout the experiment by a micro-thermocouple connected to a digital thermometer (Webster Laboratories […], Calif.). In all stages of the protocol, the left ventricular developed pressure (LVP), the rate of pressure development and relaxation (±dP/dt) and the heart rate (HR), were continuously recorded by the CODAS data acquisition system (San Diego, Calif.). Rate pressure product (RPP), an index of myocardial workload, was calculated by multiplying LVP by HR. […]
# isolated rat heart [3] = assay: Measurement of irreversible ischemic injury by TTC staining of isolated perfused hearts; conditions: FTS 1 μM perfusion, 30 minutes ischemia and 30 minutes of reperfusion; control 23.7±4%, p<0.05; mean±SE
# Protocol: as §1
# [4] = system: Ras and its downstream effectors; assay: Western immunoblotting / Ras-GTP pull-down of homogenates of isolated perfused hearts (ex vivo); parameters: species or system rat; conditions: FTS 1 μM, 30 minutes of reperfusion
# Protocol: Hearts were obtained from FTS- and PBS-treated rats (LAD ligation experiments) and from isolated heart perfusion experiments. The hearts were homogenized in cold homogenization buffer containing protease inhibitors. Protein concentration was determined by the Bradford assay and samples containing 100 μg protein were used for determination of protein levels by Western immunoblotting using: pan-anti-Ras Ab (Ab03; Santa Cruz, Calif.), anti JNK Ab (Cell Signaling; Danvers, Mass.), anti p-JNK Ab (Cell Signaling), anti P38 Ab (Cell Signaling), anti p-P38 Ab (Cell Signaling), anti Mst1 Ab (Cell Signaling), and anti p-Mst1 Ab (Cell Signaling). Enhanced chemiluminescence (ECL) and densitometric analysis were performed as detailed previously [[…], Weisz […], Paz A, Marciano D, Egozi Y, et al., Biochemistry 37(5):1306-14 (1998)1. The hearts were prepared as described above. Samples containing 0.5 mg protein used for determination of levels of active GTP-bound Ras by the glutathione S-transferase-RBD pull-down assay followed by Western immunoblotting with pan-anti-Ras Ab as detailed previously [Jansen […], Mayer […], et al., Proc Natl Acad Sci U.S.A. 96(24):14019-24 (1999)]. To examine the effect of FTS on Ras signaling on its prominent downstream effectors, Western immunoblotting using homogenates of the isolated perfused hearts was performed. Quantitative analysis of the immunoblots disclosed a reduction in levels of active Ras (Ras-GTP) and p-Jnk in hearts of the FTS group (p<0.05) at 30 minutes of reperfusion.
# [5] = system: Ras and its downstream effectors; assay: Western immunoblotting / Ras-GTP pull-down of hearts from LAD ligation rats (in vivo); parameters: species or system rat; conditions: Protocol A, 5 mg/kg
# [6] = human, in vivo; cited from earlier work
# Male Lewis rats [7] = assay: LAD artery ligation I/R model, echocardiography at day 14; conditions: 5 mg/kg i.p.
# Protocol: (§2) At the age of 12 weeks, rats were anesthetized (mixture of 8 mg/100 g ketamine, 5 mg/100 g xylazine), intubated, and ventilated with a Harvard Rodent Ventilator Model 383 (respiratory rate: 50/min, respiratory volume: 2.5 mL). A rectal thermocouple was used to continuously monitor body temperature, which was maintained at 37° C. using a heating pad. A left thoracotomy in the third intercostal space was performed to expose the heart. The location of the left descending coronary artery was identified and then occluded with a 6-0 silk suture. Occlusion was confirmed by monitoring the pallor of the region at risk, and an electrocardiogram was used to observe changes such as widening of QRS and ST-T segment elevation. After 30 minutes, the occlusion was removed, the thorax was closed, and rats were returned to their cages at the local vivarium.
# FTS was stored in chloroform, which was evaporated under a stream of nitrogen immediately before use. The powder was dissolved in absolute ethanol and diluted to the desired concentration in sterile PBS made basic with NaOH. Carrier solution (1000 μl) containing 1.35 mg of FTS (5 mg/kg) was injected intraperitoneally (i.p.) into each rat. Control solution was prepared at the same time starting with PBS and absolute ethanol.
# LAD ligation was performed in two groups of rats. Group 1 received 5 mg/kg FTS and group 2 received PBS according to two protocols: (A) FTS or PBS was administered 7 days on a daily basis before LAD ligation, locally during occlusion opening (0.5 μM/100 μl), and continued for 14 days, every other day [prophylactic regimen] (B) FTS or PBS was administered 14 days after LAD ligation every other day [treatment regimen].
# To examine the effect of systemic FTS treatment on the heart, in vivo experiments were conducted according two protocols.
# Male Lewis rats [8] = assay: LAD artery ligation I/R model, histopathology (H&E and Masson Trichrome), area of irreversible damage; conditions: 5 mg/kg i.p.
# Protocol: as §2
# FTS was stored in chloroform, which was evaporated under a stream of nitrogen immediately before use. The powder was dissolved in absolute ethanol and diluted to the desired concentration in sterile PBS made basic with NaOH. […]
# Hearts were removed and fixed in 4% formalin, then embedded in paraffin. […] Slides were then assessed in a blinded fashion by a pathologist using light microscopy and scored for the percentage of LVP involvement and collagen deposition. Scar area was evaluated using data from both H&E and Masson staining. […]
# [9] = reperfusion after 30 minutes of ischemia, p<0.05
# [10] = Protocol A (prophylactic regimen), p<0.05
structure (smiles),measurement,setting,value
"CC(C)=CCC/C(C)=C/CC/C(C)=C/CSc1ccccc1C(=O)O [FTS, S-farnesylthiosalicylic acid]",CF (coronary flow) recovery vs. control,isolated rat heart [1]; 30 minutes of reperfusion after 30 minutes of ischemia,no effect
same,recovery of HR vs. control,isolated rat heart [1]; reperfusion after 30 minutes of ischemia,no significant difference
same,LVP recovery vs. control,isolated rat heart [1]; [9],significantly better
same,±dP/dt recovery vs. control,isolated rat heart [1]; [9],significantly better
same,CK release to the coronary effluent vs. control,isolated rat heart [2],"lower in the FTS group compared with control group, but did not reach statistical significance"
same,LDH release to the coronary effluent vs. control,isolated rat heart [2],"lower in the FTS group compared with control group, but did not reach statistical significance"
same,"regions of irreversible ischemic injury (TTC-negative area, percentage of the entire area of the section)",isolated rat heart [3],12.7±2%
same,Jnk levels vs. control,[4],No differences
same,Mst1 levels vs. control,[4],No differences
same,P38 levels vs. control,[4],No differences
same,p-Mst1 levels vs. control,[4],No differences
same,p-P38 levels vs. control,[4],No differences
same,total Ras levels vs. control,[4],No differences
same,levels of active Ras (Ras-GTP) vs. control,[4]; p<0.05,reduction
same,levels of p-Jnk vs. control,[4]; p<0.05,reduction
same,levels of Jnk vs. control,[5],did not differ
same,levels of Mst vs. control,[5],did not differ
same,levels of P38 vs. control,[5],did not differ
same,levels of p-Jnk vs. control,[5],did not differ
same,levels of p-P38 vs. control,[5],did not differ
same,levels of active Ras (Ras-GTP) vs. control,[5]; p<0.05,reduction
same,levels of p-Mst1 vs. control,[5]; p<0.05,reduction
same,levels of total Ras vs. control,[5]; p<0.05,reduction
same,tolerability / dose-limiting toxicities,[6],well-tolerated compound without dose-limiting toxicities
same,hemodynamic parameters of cardiac function vs. control I/R,Male Lewis rats [7]; Protocol A (prophylactic regimen),significant improvement in most hemodynamic parameters
same,left ventricular end-diastolic area (LVEDA) vs. control I/R,Male Lewis rats [7]; [10],significantly better
same,left ventricular end-systolic area (LVESA) vs. control I/R,Male Lewis rats [7]; [10],significantly better
same,septum diameter,"Male Lewis rats [7]; Protocol A (prophylactic regimen), control I/R 0.1±0.01, p<0.05, mean±SE",0.14±0.01 cm
same,fractional shortening of area,"Male Lewis rats [7]; Protocol A (prophylactic regimen), control I/R 38±4%, p<0.05, mean±SE",55±6%
same,cardiac hemodynamic function vs. control I/R,"Male Lewis rats [7]; Protocol B (treatment regimen, 14 days post-LAD ligation)",no improvement
same,area of irreversible damage (percentage of LV wall),"Male Lewis rats [8]; Protocol A (prophylactic regimen), control I/R 36±7%, mean±SE",17.25±2.5%
same,area of irreversible damage vs. control I/R,Male Lewis rats [8]; Protocol B (treatment regimen),did not show a significant difference
